Source: article PMC6145935, “Asymmetric assembly of high-value α-functionalized organic acids using a biocatalytic chiral-group-resetting process” (Nature Communications, 2018)

Target: T1, CgTD (Corynebacterium glutamicum, UniProt Q04513)
T1 construct: gene ilvA; recombinant, expressed in E. coli BL21(DE3) from pETDuet-1 (pETduet-CgTD)
T1 sequence (Q04513 1-436): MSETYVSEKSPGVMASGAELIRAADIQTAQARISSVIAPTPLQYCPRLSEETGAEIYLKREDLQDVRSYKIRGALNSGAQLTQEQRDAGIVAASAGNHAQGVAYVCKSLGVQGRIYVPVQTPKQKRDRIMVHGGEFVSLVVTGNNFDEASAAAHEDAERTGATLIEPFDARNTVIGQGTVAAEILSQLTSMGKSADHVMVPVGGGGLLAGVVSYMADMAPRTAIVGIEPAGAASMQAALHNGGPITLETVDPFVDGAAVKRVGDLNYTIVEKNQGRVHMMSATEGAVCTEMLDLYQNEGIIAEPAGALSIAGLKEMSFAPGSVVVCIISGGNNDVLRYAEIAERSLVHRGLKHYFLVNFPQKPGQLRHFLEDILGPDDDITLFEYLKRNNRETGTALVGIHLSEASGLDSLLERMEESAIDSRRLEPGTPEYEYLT
Assay: TD activity screen of enzyme expressed in E. coli
Settings: PLP enzyme; deamination to alpha-keto acid 4a

Row | Compound | TD activity screen of enzyme expressed in E. coli
1 | N[C@H](C(=O)O)[C@@H](O)c1ccccc1 [erythro-3a, erythro-ʟ-phenylserine] | only TD from Corynebacterium glutamicum (CgTD) showed activities toward both configurations
2 | N[C@H](C(=O)O)C(O)c1ccccc1 (stereo partly drawn) [threo-3a, threo-ʟ-phenylserine] | the TD activities toward both threo- and erythro-ʟ-phenylserine (threo/erythro-3a) were tested
